Source: patent publication US20240368104A1, “Novel Dialkoxynaphtho[2,3-C]Furan-1(3H)-One Derivatives and Pharmaceutical Composition For Preventing or Treating Respiratory Disease or SARS-COV-2 Infection Disease, Comprising Same” (priority 2021, published 2024)
Where two headings read alike, the source gives them in different places.

How the values were obtained:
[1] = tested on: SARS-COV-2; test: microbe, parasite or virus in culture; format: cell-based; set-up: SI (Selectivity Index, CC50/IC50): unit not given here; details: for SI (Selectivity Index, CC50/IC50): SARS-COV-2, values >50 assumed to be 50; for IC50: read-out: SARS-COV-2 inhibition (IC50)
[2] = in vitro; details: African green monkey
[3] = Severe acute respiratory syndrome coronavirus 2, Vero cells, 24 hours infection
[4] = Severe acute respiratory syndrome coronavirus 2, Vero, 24 h

COc1cc2cc3c(c(-c4ccc(N(C)CC(C)C)nc4)c2cc1OC)C(=O)OC3 [Example 181, 9-(6-(isobutyl(methyl)amino)pyridin-3-yl)-6,7-dimethoxynaphtho[2,3-c]furan-1(3H)-one]
SI (Selectivity Index, CC50/IC50) [1]: 53.67
IC50 [1, 3]: 0.93 µM
CC50 [2]: > 50 µM

CCN(c1ccc(-c2c3c(cc4cc(OC)c(OC)cc24)COC3=O)cn1)C(C)C [Example 182, 9-(6-(ethyl(isopropyl)amino)pyridin-3-yl)-6,7-dimethoxynaphtho[2,3-c]furan-1(3H)-one]
SI (Selectivity Index, CC50/IC50) [1]: 75.67
IC50 [1, 3]: 0.66 µM
CC50 [2]: > 50 µM

COc1cc2cc3c(c(-c4ccc(N(C)CC5CC5)nc4)c2cc1OC)C(=O)OC3.Cl [Example 183, 9-(6-((cyclopropylmethyl)(methyl)amino)pyridin-3-yl)-6,7-dimethoxynaphtho[2,3-c]furan-1(3H)-one]
SI (Selectivity Index, CC50/IC50) [1]: 124.83
IC50 [1, 4]: 0.4 µM
CC50 [2]: > 50 µM

COc1cc2cc3c(c(-c4ccnc(Cl)c4)c2cc1OC)C(=O)OC3 [Example 184, 9-(2-chloropyridin-4-yl)-6,7-dimethoxynaphtho[2,3-c]furan-1(3H)-one]
SI (Selectivity Index, CC50/IC50) [1]: 1.0
IC50 [1, 3]: > 50 µM
CC50 [2]: > 50 µM

COc1cc2cc3c(c(-c4ccc(Cl)nc4)c2cc1OC)C(=O)OC3 [Example 185, 9-(6-chloropyridin-3-yl)-6,7-dimethoxynaphtho[2,3-c]furan-1(3H)-one]
SI (Selectivity Index, CC50/IC50) [1]: 149.26
IC50 [1, 3]: 0.33 µM
CC50 [2]: > 50 µM

COc1cc2cc3c(c(-c4ccnc(F)c4)c2cc1OC)C(=O)OC3 [Example 186, 9-(2-fluoropyridin-4-yl)-6,7-dimethoxynaphtho[2,3-c]furan-1(3H)-one]
SI (Selectivity Index, CC50/IC50) [1]: 1.0
IC50 [1, 3]: > 50 µM
CC50 [2]: > 50 µM

COc1cc2cc3c(c(-c4cncc(OCCN(C)C)c4)c2cc1OC)C(=O)OC3.Cl [Example 187, 9-(5-(2-(dimethylamino)ethoxy)pyridin-3-yl)-6,7-dimethoxynaphtho[2,3-c]furan-1(3H)-one]
SI (Selectivity Index, CC50/IC50) [1]: 1.0
IC50 [1, 4]: > 50 µM
CC50 [2]: > 50 µM

COc1cc2cc3c(c(-c4ccc(N(C)C(C)C)nc4)c2cc1OC)C(=O)OC3 [Example 188, 9-(6-(isopropyl(methyl)amino)pyridin-3-yl)-6,7-dimethoxynaphtho[2,3-c]furan-1(3H)-one]
SI (Selectivity Index, CC50/IC50) [1]: 1418.97
IC50 [1, 3]: 0.04 µM
CC50 [2]: > 50 µM

COc1cc2cc3c(c(-c4ccc(N5CCc6ccccc6C5)nc4)c2cc1OC)C(=O)OC3.Cl [Example 189, 9-(6-(3,4-dihydroisoquinolin-2 (1H)-yl)pyridin-3-yl)-6,7-dimethoxynaphtho[2,3-c]furan-1(3H)-one]
SI (Selectivity Index, CC50/IC50) [1]: 72.26
IC50 [1, 4]: 0.69 µM
CC50 [2]: > 50 µM

COc1cc2cc3c(c(-c4ccc5c(c4)CN(C)CC5)c2cc1OC)C(=O)OC3 [Example 190, 6,7-dimethoxy-9-(2-methyl-1,2,3,4-tetrahydroisoquinolin-7-yl)naphtho[2,3-c]furan-1(3H)-one]
SI (Selectivity Index, CC50/IC50) [1]: 1.73
IC50 [1, 3]: 29 µM
CC50 [2]: > 50 µM

CCN(c1ccc(-c2c3c(cc4cc(OC)c(OC)cc24)COC3=O)cn1)C1CCCC1 [Example 191, 9-(6-(cyclopentyl(ethyl)amino)pyridin-3-yl)-6,7-dimethoxynaphtho[2,3-c]furan-1(3H)-one]
SI (Selectivity Index, CC50/IC50) [1]: 35.47
IC50 [1, 3]: 1.41 µM
CC50 [2]: > 50 µM

COc1cc2cc3c(c(-c4ccc(N(C)CC5CCCO5)nc4)c2cc1OC)C(=O)OC3 (stereo not drawn) [Example 192, 6,7-dimethoxy-9-(6-(methyl((tetrahydrofuran-2-yl)methyl)amino)pyridin-3-yl)naphtho[2,3-c]furan-1(3H)-one]
SI (Selectivity Index, CC50/IC50) [1]: 10.08
IC50 [1, 3]: 4.96 µM
CC50 [2]: > 50 µM

CCN(CC1CCCO1)c1ccc(-c2c3c(cc4cc(OC)c(OC)cc24)COC3=O)cn1 (stereo not drawn) [Example 193, 9-(6-(ethyl((tetrahydrofuran-2-yl)methyl)amino)pyridin-3-yl)-6,7-dimethoxynaphtho[2,3-c]furan-1(3H)-one]
SI (Selectivity Index, CC50/IC50) [1]: 6.46
IC50 [1, 3]: 7.74 µM
CC50 [2]: > 50 µM

CCN(c1ccc(-c2c3c(cc4cc(OC)c(OC)cc24)COC3=O)cn1)C1Cc2ccccc2C1 [Example 195, 9-(6-((2,3-dihydro-1H-indan-2-yl)(ethyl)amino)pyridin-3-yl)-6,7-dimethoxynaphtho[2,3-c]furan-1(3H)-one]
SI (Selectivity Index, CC50/IC50) [1]: 9.50
IC50 [1, 3]: 5.27 µM
CC50 [2]: > 50 µM

COc1cc2cc3c(c(-c4ccc(N(C)CCc5cn(C)c6ccccc56)nc4)c2cc1OC)C(=O)OC3 [Example 196, 6,7-dimethoxy-9-(6-(methyl(2-(1-methyl-1H-indol-3-yl)ethyl)amino)pyridin-3-yl)naphtho[2,3-c]furan-1(3H)-one]
SI (Selectivity Index, CC50/IC50) [1]: 20.54
IC50 [1, 3]: 2.43 µM
CC50 [2]: > 50 µM

CCN(CCc1cn(CC)c2ccccc12)c1ccc(-c2c3c(cc4cc(OC)c(OC)cc24)COC3=O)cn1 [Example 197, 9-(6-(ethyl(2-(1-ethyl-1H-indol-3-yl)ethyl)amino)pyridin-3-yl)-6,7-dimethoxynaphtho[2,3-c]furan-1(3H)-one]
SI (Selectivity Index, CC50/IC50) [1]: 2.88
IC50 [1, 3]: 17.4 µM
CC50 [2]: > 50 µM

COc1cc2cc3c(c(-c4ccc(N(C)Cc5cccs5)nc4)c2cc1OC)C(=O)OC3 [Example 198, 6,7-dimethoxy-9-(6-(methyl(thiophen-2-ylmethyl)amino)pyridin-3-yl)naphtho[2,3-c]furan-1(3H)-one]
SI (Selectivity Index, CC50/IC50) [1]: 48.47
IC50 [1, 3]: 1.03 µM
CC50 [2]: > 50 µM

CCN(Cc1cccs1)c1ccc(-c2c3c(cc4cc(OC)c(OC)cc24)COC3=O)cn1 [Example 199, 9-(6-(ethyl(thiophen-2-ylmethyl)amino)pyridin-3-yl)-6,7-dimethoxynaphtho[2,3-c]furan-1(3H)-one]
SI (Selectivity Index, CC50/IC50) [1]: 25.20
IC50 [1, 3]: 1.98 µM
CC50 [2]: > 50 µM

COc1cc2cc3c(c(-c4cncc(OC(C)C)c4)c2cc1OC)C(=O)OC3 [Example 200, 9-(5-isopropoxypyridin-3-yl)-6,7-dimethoxynaphtho[2,3-c]furan-1(3H)-one]
SI (Selectivity Index, CC50/IC50) [1]: 1.77
IC50 [1, 3]: 28.2 µM
CC50 [2]: > 50 µM

COc1cc2cc3c(c(-c4cnc(Cl)c(N(C)C)c4)c2cc1OC)C(=O)OC3 [Example 201, 9-(6-chloro-5-(dimethylamino)pyridin-3-yl)-6,7-dimethoxynaphtho[2,3-c]furan-1(3H)-one]
SI (Selectivity Index, CC50/IC50) [1]: 39.52
IC50 [1, 3]: 1.27 µM
CC50 [2]: > 50 µM

COc1cc2cc3c(c(-c4ccc(N5CCCC(c6cccc(C)c6)C5)nc4)c2cc1OC)C(=O)OC3 (stereo not drawn) [Example 202, 6,7-dimethoxy-9-(6-(3-(m-tolyl)piperidin-1-yl)pyridin-3-yl)naphtho[2,3-c]furan-1(3H)-one]
SI (Selectivity Index, CC50/IC50) [1]: 38.01
IC50 [1, 3]: 1.01 µM
CC50 [2]: 38.4 µM

COc1cc2cc3c(c(-c4ccc5c(CN6CCOCC6)c[nH]c5c4)c2cc1OC)C(=O)OC3.Cl [Example 203, 6,7-dimethoxy-9-(3-(morpholinomethyl)-1H-indol-6-yl)naphtho[2,3-c]furan-1(3H)-one]
SI (Selectivity Index, CC50/IC50) [1]: 8.39
IC50 [1, 4]: 3.54 µM
CC50 [2]: 29.7 µM

COc1cc2cc3c(c(-c4cnc(OC)c(-c5nc6ccccc6[nH]5)c4)c2cc1OC)C(=O)OC3 [Example 204, 9-(5-(1H-benzo[d]imidazol-2-yl)-6-methoxypyridin-3-yl)-6,7-dimethoxynaphtho[2,3-c]furan-1(3H)-one]
SI (Selectivity Index, CC50/IC50) [1]: 0.93
IC50 [1, 4]: 25.9 µM
CC50 [2]: 24.2 µM

COc1cc2cc3c(c(-c4cnc(N5CCC(N(C)C)CC5)nc4)c2cc1OC)C(=O)OC3 [Example 205, 9-(2-(4-(dimethylamino)piperidin-1-yl)pyrimidin-5-yl)-6,7-dimethoxynaphtho[2,3-c]furan-1(3H)-one]
SI (Selectivity Index, CC50/IC50) [1]: 7.75
IC50 [1, 3]: 6.46 µM
CC50 [2]: > 50 µM

COc1cc2cc3c(c(-c4ccc(N(C)c5ncn(C)n5)nc4)c2cc1OC)C(=O)OC3 [Example 206, 6,7-dimethoxy-9-(6-(methyl(1-methyl-1H-1,2,4-triazol-3-yl)amino)pyridin-3-yl)naphtho[2,3-c]furan-1(3H)-one]
SI (Selectivity Index, CC50/IC50) [1]: 2.79
IC50 [1, 3]: 17.9 µM
CC50 [2]: > 50 µM

CCN(c1ccc(-c2c3c(cc4cc(OC)c(OC)cc24)COC3=O)cn1)c1ncn(CC)n1 [Example 207, 9-(6-(ethyl(1-ethyl-1H-1,2,4-triazol-3-yl)amino)pyridin-3-yl)-6,7-dimethoxynaphtho[2,3-c]furan-1(3H)-one]
SI (Selectivity Index, CC50/IC50) [1]: 7.57
IC50 [1, 3]: 6.6 µM
CC50 [2]: > 50 µM

COc1cc2cc3c(c(-c4ccc(N(C)Cc5ccccc5C(F)(F)F)nc4)c2cc1OC)C(=O)OC3 [Example 208, 6,7-dimethoxy-9-(6-(methyl(2-(trifluoromethyl)benzyl)amino)pyridin-3-yl)naphtho[2,3-c]furan-1(3H)-one]
SI (Selectivity Index, CC50/IC50) [1]: 18.96
IC50 [1, 3]: 2.64 µM
CC50 [2]: > 50 µM

CCN(Cc1ccccc1C(F)(F)F)c1ccc(-c2c3c(cc4cc(OC)c(OC)cc24)COC3=O)cn1 [Example 209, 9-(6-(ethyl(2-(trifluoromethyl)benzyl)amino)pyridin-3-yl)-6,7-dimethoxynaphtho[2,3-c]furan-1(3H)-one]
SI (Selectivity Index, CC50/IC50) [1]: 14.52
IC50 [1, 3]: 3.44 µM
CC50 [2]: > 50 µM

COc1cc2cc3c(c(-c4ccc(C(=O)C(F)(F)F)cc4)c2cc1OC)C(=O)OC3 [Example 210, 6,7-dimethoxy-9-(4-(2,2,2-trifluoroacetyl)phenyl)naphtho[2,3-c]furan-1(3H)-one]
SI (Selectivity Index, CC50/IC50) [1]: 4.91
IC50 [1, 4]: 10.2 µM
CC50 [2]: > 50 µM

COc1cc2cc3c(c(-c4ccc(N5C(=O)OC[C@@H]5Cc5ccccc5)nc4)c2cc1OC)C(=O)OC3 [Example 211, (S)-4-benzyl-3-(5-(6,7-dimethoxy-3-oxo-1,3-dihydronaphtho[2,3-c]furan-4-yl)pyridin-2-yl) oxazolidin-2-one]
SI (Selectivity Index, CC50/IC50) [1]: 12.50
IC50 [1, 3]: 4 µM
CC50 [2]: > 50 µM
